Experiments:
human TLR8 = biological target: T1, human TLR8 (Homo sapiens, UniProt Q9NR97); test: Cell-based TLR 7/8 assay, HEK-Blue TLR8 cells (SEAP reporter); details: based on Compound concentration only; Compounds formulated as SNEs; read-out: huTLR8 EC50 (converted)
T1 construct: host or cells: HEK-Blue 293 cells expressing human TLR8
T1 sequence (Q9NR97 27-1041): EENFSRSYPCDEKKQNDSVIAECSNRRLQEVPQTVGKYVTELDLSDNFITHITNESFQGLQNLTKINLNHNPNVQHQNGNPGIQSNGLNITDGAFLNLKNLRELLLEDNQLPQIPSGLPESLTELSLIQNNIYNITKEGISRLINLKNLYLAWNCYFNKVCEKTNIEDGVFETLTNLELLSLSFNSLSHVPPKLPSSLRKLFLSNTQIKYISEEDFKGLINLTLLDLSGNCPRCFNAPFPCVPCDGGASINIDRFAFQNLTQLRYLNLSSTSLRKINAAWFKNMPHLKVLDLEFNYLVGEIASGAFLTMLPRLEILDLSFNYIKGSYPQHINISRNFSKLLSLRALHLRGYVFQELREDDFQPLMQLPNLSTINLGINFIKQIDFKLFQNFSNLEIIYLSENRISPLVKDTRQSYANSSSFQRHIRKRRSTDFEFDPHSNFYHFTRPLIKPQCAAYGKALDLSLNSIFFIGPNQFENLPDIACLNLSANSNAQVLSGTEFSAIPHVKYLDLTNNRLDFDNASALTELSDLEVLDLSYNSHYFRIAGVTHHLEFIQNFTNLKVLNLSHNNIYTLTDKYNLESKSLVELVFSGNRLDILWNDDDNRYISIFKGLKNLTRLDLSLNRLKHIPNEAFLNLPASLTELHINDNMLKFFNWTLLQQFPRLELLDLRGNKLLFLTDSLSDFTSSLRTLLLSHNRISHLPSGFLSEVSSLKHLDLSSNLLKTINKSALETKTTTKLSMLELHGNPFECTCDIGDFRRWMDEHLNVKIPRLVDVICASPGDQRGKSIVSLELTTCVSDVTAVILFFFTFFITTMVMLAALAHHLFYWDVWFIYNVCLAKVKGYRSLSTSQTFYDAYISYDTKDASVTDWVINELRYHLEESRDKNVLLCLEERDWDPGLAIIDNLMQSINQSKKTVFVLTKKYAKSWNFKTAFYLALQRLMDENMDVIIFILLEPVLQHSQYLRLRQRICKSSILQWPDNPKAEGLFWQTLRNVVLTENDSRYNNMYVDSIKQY
Protocol: (§1) HEK-Blue™ TLR7 and TLR8 cells (InvivoGen) were designed to assess the stimulation of TLR7 and TLR8 by monitoring the activation of NF-κB and AP-1. Compound B-1-SNE samples were diluted 1:2 across an 8-point titration in diluent buffer histidine/PS-20 in a sterile V-bottom plate. 20 μL of samples were transferred to corresponding wells of two flat bottom assay plates. Media was aspirated from HEK-Blue™ human TLR 7 and TLR 8 cells (T-75 flasks) and gently rinsed with pre-warmed (37° C.) DPBS for a total volume of 5 mL/flask. The DPBS was gently removed from the cells and cells were gently manually dislodged and resuspended in 2 mL of DPBS. Cell assay suspensions were then prepared at approximately 2.2×10^5 cells per mL of HEK-Blue™ detection medium (InvivoGen). 180 μL of cell suspension in detection medium was added to each well of the two flat bottom assay plates containing the diluted Compound B-1-SNE samples for a final dilution of sample equaling 1:10 (180 μL of cell suspension in detection medium and 20 μL of sample). The cells were then incubated at 37° C. in 5% CO2 for 20 hrs. The reporter gene, NF-Kb, induces the production of secreted embryonic alkaline phosphatase (SEAP) when stimulated and can be monitored using the vendor supplied SEAP detection kit. SEAP colorimetric changes were read at an absorbance of 640 nm using a SpectroMax Stakmax plate reader. […] EC50 values were calculated based on total Compound B-1-SNE concentration using GraphPad Prism Software and analyzed using agonist vs. response variable slope (four parameters) least squares fit.
(§2) Further to the description in Example 10, a cell-based activation system was used to assess activity of the Compound-formulated nanoemulsion systems, prepared as described in examples, supra. HEK-Blue™ TLR7 and TLR8 cells (InvivoGen) were designed to assess the stimulation of TLR7 and TLR8 by monitoring the activation of NF-κB and AP-1. Compound-SNE samples were diluted 1:2 across an 8-point titration in diluent buffer histidine/PS-20 in a sterile V-bottom plate. 20 μL of samples were transferred to corresponding wells of two flat bottom assay plates. Media was aspirated from HEK-Blue™ human TLR 7 and TLR 8 cells (T-75 flasks) and gently rinsed with pre-warmed (37° C.) DPBS for a total volume of 5 mL/flask. The DPBS was gently removed from the cells and cells were gently manually dislodged and resuspended in 2 mL of DPBS. Cell assay suspensions were then prepared at approximately 2.2×10^5 cells per mL of HEK-Blue™ detection medium (InvivoGen). 180 μL of cell suspension in detection medium was added to each well of the two flat bottom assay plates containing the diluted Compound-SNE samples for a final dilution of sample equaling 1:10 (180 μL of cell suspension in detection medium and 20 μL of sample). The cells were then incubated at 37° C. in 5% CO2 for 20 hrs. The reporter gene, NF-Kb, induces the production of secreted embryonic alkaline phosphatase (SLAP) when stimulated and can be monitored using the vendor supplied SLAP detection kit. SLAP colorimetric changes were read at an absorbance of 640 nm using a SpectroMax Stakmax plate reader. EC50s were calculated based on Compound concentration only, not total Compound-SNE concentration (Table 6) using GraphPad Prism Software and analyzed using agonist vs. response variable slope (four parameters) least squares fit.

human TLR7 = biological target: T2, human TLR7 (Homo sapiens, UniProt Q9NYK1); test: Cell-based TLR 7/8 assay, HEK-Blue TLR7 cells (SEAP reporter); details: based on Compound concentration only; Compounds formulated as SNEs; read-out: huTLR7 EC50 (converted)
T2 construct: host or cells: HEK-Blue 293 cells expressing human TLR7
T2 sequence (Q9NYK1 27-1049): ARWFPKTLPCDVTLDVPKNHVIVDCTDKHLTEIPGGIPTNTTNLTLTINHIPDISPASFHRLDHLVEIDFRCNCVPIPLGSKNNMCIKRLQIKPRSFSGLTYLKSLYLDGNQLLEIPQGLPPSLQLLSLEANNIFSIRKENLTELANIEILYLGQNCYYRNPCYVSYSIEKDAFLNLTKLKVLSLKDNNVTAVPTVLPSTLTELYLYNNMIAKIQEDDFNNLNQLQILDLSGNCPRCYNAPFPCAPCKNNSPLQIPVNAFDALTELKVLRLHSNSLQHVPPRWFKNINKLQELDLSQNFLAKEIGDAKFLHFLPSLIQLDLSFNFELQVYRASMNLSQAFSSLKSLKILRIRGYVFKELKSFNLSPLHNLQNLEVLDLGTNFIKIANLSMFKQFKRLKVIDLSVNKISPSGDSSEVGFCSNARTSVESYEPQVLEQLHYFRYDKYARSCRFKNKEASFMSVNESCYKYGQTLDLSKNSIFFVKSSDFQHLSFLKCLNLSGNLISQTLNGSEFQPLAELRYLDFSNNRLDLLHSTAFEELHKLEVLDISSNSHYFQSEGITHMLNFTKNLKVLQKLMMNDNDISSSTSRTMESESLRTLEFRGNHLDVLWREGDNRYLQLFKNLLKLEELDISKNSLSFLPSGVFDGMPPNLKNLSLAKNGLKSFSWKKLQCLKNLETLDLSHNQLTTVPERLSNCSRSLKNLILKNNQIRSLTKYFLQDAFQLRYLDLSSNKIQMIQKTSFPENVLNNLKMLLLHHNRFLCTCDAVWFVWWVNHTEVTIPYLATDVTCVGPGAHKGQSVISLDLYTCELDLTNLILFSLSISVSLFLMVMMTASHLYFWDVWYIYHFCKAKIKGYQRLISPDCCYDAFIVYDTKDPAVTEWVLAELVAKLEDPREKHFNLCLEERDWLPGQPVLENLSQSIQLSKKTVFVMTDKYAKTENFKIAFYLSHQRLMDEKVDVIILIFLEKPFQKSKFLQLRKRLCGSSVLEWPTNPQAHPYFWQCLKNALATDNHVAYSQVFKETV
Protocol: as §1, §2

EC50 (human TLR8) [µM] | EC50 (human TLR7) [µM] | SMILES
0.215 | 0.316 | CCCCCCCCCCCCCCCCCC(=O)NCCCCC(=O)N1CCN(c2ccc(Cn3nc4c(NCCCC)nc(N)nc4c3C)c(OC)c2)CC1 [Compound B-18, N-(5-(4-(4-((5-amino-7-(butylamino)-3-methyl-2H-pyrazolo[4,3-d]pyrimidin-2-yl)methyl)-3-methoxyphenyl)piperazin-1-yl)-5-oxopentyl)stearamide]
0.176 | 0.338 | CCCCCCCCCCCCCC(=O)NCCCCN(C)Cc1cc(OC)c(Cn2cc3nc(N)nc(NCCCC)c3n2)c(OC)c1 [Compound C-2, N-(4-((4-((5-amino-7-(butylamino)-2H-pyrazolo[4,3-d]pyrimidin-2-yl)methyl)-3,5-dimethoxybenzyl)(methyl)amino)butyl)tetradecanamide]
73.6 | 117 | CCCCCCCCCCCCCCCCNC(=O)[C@H]1C[C@@H](CC(=O)N2CCN(c3ccc(Cn4cc5nc(N)nc(NCCCC)c5n4)c(OC)c3)CC2)C1 [Compound B-10, (1s,3s)-3-(2-(4-(4-((5-amino-7-(butylamino)-2H-pyrazolo[4,3-d]pyrimidin-2-yl)methyl)-3-methoxyphenyl)piperazin-1-yl)-2-oxoethyl)-N-hexadecylcyclobutane-1-carboxamide]
3.02 | 85.9 | CCCCCCCCCCCCCCCCCC(=O)NC1CC(CC(=O)N2CCN(c3ccc(Cn4cc5nc(N)nc(NCCCC)c5n4)c(OC)c3)CC2)C1 (stereo not shown) [Compound B-13, N-(3-(2-(4-(4-((5-amino-7-(butylamino)-2H-pyrazolo[4,3-d]pyrimidin-2-yl)methyl)-3-methoxyphenyl)piperazin-1-yl)-2-oxoethyl)cyclobutyl)stearamide]
4.21 | 13.4 | CCCCCCCCCCCCCCCCCC(=O)NCCCCC(=O)N1CCCN(c2ccc(Cn3cc4nc(N)nc(NCCCC)c4n3)c(OC)c2)CC1 [Compound B-5, N-(5-(4-(4-((5-amino-7-(butylamino)-2H-pyrazolo[4,3-d]pyrimidin-2-yl)methyl)-3-methoxyphenyl)-1,4-diazepan-1-yl)-5-oxopentyl)stearamide]
0.401 | 3.07 | CCCCCCCCCCCCCCCCCC(=O)NCCC(=O)N1CCN(c2ccc(Cn3cc4nc(N)nc(NCCCC)c4n3)c(OC)c2)CC1 [Compound B-11, N-(3-(4-(4-((5-amino-7-(butylamino)-2H-pyrazolo[4,3-d]pyrimidin-2-yl)methyl)-3-methoxyphenyl)piperazin-1-yl)-3-oxopropyl)stearamide]
5.82 | 17.7 | CCCCCCCCCCCCCCCCCC(=O)NCCCNC(=O)N1CCN(c2ccc(Cn3cc4nc(N)nc(NCCCC)c4n3)c(OC)c2)CC1 [Compound D-2, 4-(4-((5-amino-7-(butylamino)-2H-pyrazolo[4,3-d]pyrimidin-2-yl)methyl)-3-methoxyphenyl)-N-(3-stearamidopropyl)piperazine-1-carboxamide]
13.8 | 23.7 | CCCCCCCCCCCCCCCCCC(=O)NCCCOC(=O)N1CCN(c2ccc(Cn3cc4nc(N)nc(NCCCC)c4n3)c(OC)c2)CC1 [Compound D-3, 3-stearamidopropyl 4-(4-((5-amino-7-(butylamino)-2H-pyrazolo[4,3-d]pyrimidin-2-yl)methyl)-3-methoxyphenyl)piperazine-1-carboxylate]
25.5 | 23.4 | CCCCCCCCCCCCCCCCCC(=O)NCCCCCCC(=O)N1CCN(c2ccc(Cn3cc4nc(N)nc(NCCCC)c4n3)c(OC)c2)CC1 [Compound B-12, N-(7-(4-(4-((5-amino-7-(butylamino)-2H-pyrazolo[4,3-d]pyrimidin-2-yl)methyl)-3-methoxyphenyl)piperazin-1-yl)-7-oxoheptyl)stearamide]
0.163 | 0.503 | CCCCCCCC/C=C\CCCCCCCC(=O)NCCCCN(C)Cc1cc(OC)c(Cn2cc3nc(N)nc(NCCCC)c3n2)c(OC)c1 [Compound C-3, N-(4-((4-((5-amino-7-(butylamino)-2H-pyrazolo[4,3-d]pyrimidin-2-yl)methyl)-3,5-dimethoxybenzyl)(methyl)amino)butyl)oleamide]
155 | 17.2 | CCCCC/C=C\C/C=C\CCCCCCCCC(CCCCCCCC/C=C\C/C=C\CCCCC)OC(=O)NCCCCN(C)Cc1cc(OC)c(Cn2cc3nc(N)nc(NCCCC)c3n2)c(OC)c1 [Compound D-1, (6Z,9Z,28Z,31Z)-heptatriaconta-6,9,28,31-tetraen-19-yl (4-((4-((5-amino-7-(butylamino)-2H-pyrazolo[4,3-d]pyrimidin-2-yl)methyl)-3,5-dimethoxybenzyl)(methyl)amino)butyl)carbamate]
